From patent US20050239720A1, “Combination of an agent that attenuates topoisomerase 1 activity and an agent that inhibits heat shock protein 90 for use in chemotherapy” (UNIVERSITY OF LIVERPOOL Senate House, priority 2002, published 2005) come the findings set out here.

The subject of this assay is HCT116 p53 WT cells and p53 KO cells. Nature of the assay: Growth inhibition assay (sulforhodamine B). The settings on record: single drug alone; HCT116 p53 WT and p53 knockout cells; FIG. 4 and FIG. 5. It is filed as cell-based, human. How it is done:
The isogenic p53 human colon cancer cell line (WT and KO), HCT116 (see Hwang et al. Nat Med 2001 November 7(11):1255). Cells were maintained in McCoys 5A medium (Sigma) supplemented with 10% foetal calf serum (Gibco) at 37° C. in a 5% CO2 enriched humidified environment, Penicillin and Streptomycin. 96 well flat-bottomed plates were seeded with 3×10^3 cells per well and allowed to adhere overnight. Media was then replaced with fresh media alone (control) or containing test drugs e.g. 0-100 μM irinotecan, 50 to 200 nM geldanamycin (GA) and combinations of both. At fixed time points, cells were fixed with 3:1 methanol:acetic acid and stained with 0.4% w/v sulforhodamine B (Sigma) in 1% v/v acetic acid for 30 minutes. Plates were then washed twice with 1% v/v acetic acid, the dye solubilised with 100 μl per well of 10 mM Tris pH 10.4 and read at […] using a Benchmark microplate reader (BioRad). Drugs were used in the following concentrations for Growth inhibition and Clonogenic assays: [table]

In the case of `COC1=C2C[C@@H](C)C[C@H](OC)[C@H](O)[C@@H](C)/C=C(\C)[C@H](OC(N)=O)[C@@H](OC)/C=C\C=C(/C)C(=O)NC(=CC1=O)C2=O` [Geldanamycin], the “effect on cell growth” value is on record as “inhibitory effects”. For `CCc1c2c(nc3ccc(OC(=O)N4CCC(N5CCCCC5)CC4)cc13)-c1cc3c(c(=O)n1C2)COC(=O)[C@]3(O)CC` [Irinotecan] the value was “inhibitory effects”.
